Laboratory results reported in patent US6939711B2, “Control of gene expression in plants by receptor mediated transactivation in the presence of a chemical ligand” (Syngenta Investment Corporation, priority 1995, dated 2005).
Read-outs that look alike come from different tables or passages of the source.

What was measured:
[1] = target: T1, receptor polypeptide EcR and chimeric receptor polypeptide VP16-USP (Drosophila melanogaster, UniProt P34021); format: cell-based; conditions: 48 hours, maize cells, 35S/EcR + 35S/VP16-USP, (EcRE)6-Bz1/Luc
T1 construct: expressed in transfected cells; host or cells: maize suspension cells (microprojectile bombardment)
T1 sequence (P34021 1-878): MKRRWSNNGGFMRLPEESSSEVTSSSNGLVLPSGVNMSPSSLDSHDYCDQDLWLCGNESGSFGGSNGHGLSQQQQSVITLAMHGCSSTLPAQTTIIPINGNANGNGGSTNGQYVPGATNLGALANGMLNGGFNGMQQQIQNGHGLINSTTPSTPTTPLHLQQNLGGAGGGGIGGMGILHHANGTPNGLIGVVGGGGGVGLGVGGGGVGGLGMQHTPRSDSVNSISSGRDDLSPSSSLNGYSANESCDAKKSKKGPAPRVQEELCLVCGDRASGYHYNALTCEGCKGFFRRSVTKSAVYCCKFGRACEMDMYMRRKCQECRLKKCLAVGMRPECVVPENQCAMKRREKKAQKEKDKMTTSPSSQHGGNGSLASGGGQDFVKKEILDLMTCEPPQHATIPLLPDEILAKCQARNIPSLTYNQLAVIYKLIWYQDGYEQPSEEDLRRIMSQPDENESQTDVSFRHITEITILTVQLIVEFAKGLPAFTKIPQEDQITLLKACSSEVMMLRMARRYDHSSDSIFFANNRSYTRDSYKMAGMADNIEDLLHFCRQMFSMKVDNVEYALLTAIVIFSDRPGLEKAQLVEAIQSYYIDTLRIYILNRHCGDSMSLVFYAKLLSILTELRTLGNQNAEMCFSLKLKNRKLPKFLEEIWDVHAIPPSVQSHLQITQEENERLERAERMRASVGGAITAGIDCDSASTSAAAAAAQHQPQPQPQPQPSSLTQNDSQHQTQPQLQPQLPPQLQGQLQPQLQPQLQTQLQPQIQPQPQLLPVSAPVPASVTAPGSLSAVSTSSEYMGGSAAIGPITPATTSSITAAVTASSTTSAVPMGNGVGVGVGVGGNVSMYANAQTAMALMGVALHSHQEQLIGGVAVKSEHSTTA
Source text: (§1) Control of target polypeptide expression by various receptor polypeptides, including the chimeric receptor polypeptides of the present invention, can be shown by simultaneously transforming plant cells with the necessary gene constructions using high velocity microprojectile bombardment, followed by biochemical assay for the presence of the target polypeptide. The necessary gene constructions comprise a first receptor expression cassette which encodes a first receptor polypeptide and a second receptor expression cassette which encodes a second receptor polypeptide. In addition, a target expression cassette which-encodes a target polypeptide is also necessary (FIG. 1).
The expression cassettes were simultaneously delivered to maize suspension cells cultured in liquid N6 medium (Chu et al. Scientia Sinica XVIII:659-668, 1975) by high velocity microprojectile bombardment using standard techniques of DNA precipation onto microprojectiles and high velocity bombardment driven by compressed helium (PDS-1000/He, BioRad, Hercules, Calif.). Transfected cells were incubated in liquid suspension in the presence of the appropriate chemical ligand for approximately 48 hours in N6 media After incubation, the transformed cells were harvested then homogenized at 0° C. Debris in the extracts was removed by centrifugation at 10,000 g at 4° C. for 5 minutes. Target polypeptide expression was detected by assaying the extract for the presence of the product encoded by the target expression cassette. One commonly used coding sequence for the target polypeptide when testing control of expression by the receptor polypeptides in the presence of a chemical ligand is firefly luciferase. The activity of firefly luciferase is determined by quantitating the chemiluminescence produced by luciferase catalyzed […] of luciferin using ATP as substrate (Promega Luciferase Kit, cat. no. E1500), using an Analytical Luminescence Model 2001 luminometer. […]

[2] = target: T2, receptor polypeptides EcR and USP (Drosophila melanogaster, UniProt P34021); assay: Luciferase reporter transactivation, 35S/EcR + 35S/USP with (EcRE)5-Bz1/Luc co-transformed into maize cells; format: cell-based; conditions: approximately 48 hours
T2 construct: expressed in transfected cells; host or cells: maize suspension cells (microprojectile bombardment)
T2 sequence (P34021 1-878): T1 sequence (P34021 1-878)
T2 sequence (P20153 1-508 partner): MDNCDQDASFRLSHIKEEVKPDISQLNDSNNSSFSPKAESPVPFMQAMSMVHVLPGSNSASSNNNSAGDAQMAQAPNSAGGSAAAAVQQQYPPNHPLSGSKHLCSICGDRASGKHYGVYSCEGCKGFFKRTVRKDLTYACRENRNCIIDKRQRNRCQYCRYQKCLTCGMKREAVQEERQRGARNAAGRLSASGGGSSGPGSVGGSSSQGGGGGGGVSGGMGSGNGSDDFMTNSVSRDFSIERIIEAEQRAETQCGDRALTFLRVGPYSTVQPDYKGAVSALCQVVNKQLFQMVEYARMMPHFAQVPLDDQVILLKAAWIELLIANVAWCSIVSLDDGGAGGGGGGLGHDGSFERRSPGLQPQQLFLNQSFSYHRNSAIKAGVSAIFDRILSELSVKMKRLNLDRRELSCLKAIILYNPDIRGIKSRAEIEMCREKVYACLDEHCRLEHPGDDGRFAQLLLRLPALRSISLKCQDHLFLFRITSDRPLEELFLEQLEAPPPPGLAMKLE
Source text: as §1
(§2) The expression cassettes were simultaneously delivered to maize suspension cells cultured in liquid N6 medium (Chu et al. Scientia Sinica XVIII:659-668, 1975) by high velocity microprojectile bombardment using standard techniques of DNA precipation onto microprojectiles and high velocity bombardment driven by compressed helium (PDS-1000/He, BioRad, Hercules, Calif.). […] Target polypeptide expression was detected by assaying the extract for the presence of the product encoded by the target expression cassette. […]

[3] = target: T3, receptor polypeptides GAL4-EcR^330-825-C1 and VP16-USP (Drosophila melanogaster, UniProt P34021); assay: Luciferase reporter transactivation, 35S/GAL4-EcR^330-825-C1 + 35S/VP16-USP with (GAL4)10-Bz1/Luc in maize cells; format: cell-based; conditions: 10 μM ligand, approximately 48 hours
T3 construct: expressed in transfected cells; host or cells: maize suspension cells (microprojectile bombardment)
Source text: as §1, §2

[4] = target: T4, receptor polypeptides GAL4-EcR^330-825-C1 and USP-VP16 (UniProt P34021); assay: Luciferase reporter transactivation, 35S/GAL4-EcR^330-825-C1 + 35S/USP-VP16 with (GAL4)10-Bz1/Luc in maize cells; format: cell-based, Drosophila; conditions: 10 μM ligand, approximately 48 hours, 35S/GAL4-EcR^330-825-C1 + 35S/USP-VP16, (GAL4)10-Bz1/Luc
T4 construct: expressed in transfected cells; host or cells: maize suspension cells (microprojectile bombardment)
Source text: as §1, §2

[5] = target: T5, receptor polypeptides GAL4-EcR^330-878 and USP-VP16 (Drosophila melanogaster, UniProt P34021); assay: Luciferase reporter transactivation, 35S/GAL4-EcR^330-878 + 35S/USP-VP16 with (GAL4)10-Bz1/Luc in maize cells; format: cell-based
T5 construct: expressed in transfected cells; host or cells: maize suspension cells (microprojectile bombardment)
Source text: as §1, §2

[6] = target: T6, receptor polypeptide USP and chimeric receptor polypeptide EcR^227-825-C1 (Drosophila melanogaster, UniProt P34021); assay: Luciferase reporter transactivation, 35S/USP + 35S/EcR^227-825-C1 with (EcRE)6-Bz1/Luc in maize cells; format: cell-based; conditions: 10 μM ligand, 48 hours, 35S/USP + 35S/EcR^227-825-C1, (EcRE)6-Bz1/Luc
T6 construct: expressed in transfected cells; host or cells: maize suspension cells (microprojectile bombardment)
Source text: as §1, §2

[7] = target: USP-VP16 chimeric receptor polypeptide (Drosophila; herpes simplex virus) (UniProt P20153); assay: cell-based or functional assay

CC(C)CC[C@@H](O)[C@](C)(O)[C@H]1CC[C@@]2(O)C3=CC(=O)[C@]4(O)C[C@@H](O)[C@@H](O)C[C@]4(C)[C@H]3[C@H](O)C[C@]12C [Muristerone, muristerone]
Luciferase Activity (light units) ([1]; 2 μM ligand): 12,374 light units
Luciferase Activity (light units) ([2]; 2 μM ligand): 1351 light units

CCc1ccc(C(=O)NN(C(=O)c2cc(C)cc(C)c2)C(C)(C)C)cc1 [RH5992, tebufenozide]
Luciferase Activity (light units) [3]: 11,069 light units
Luciferase Activity (light units) [4]: 37,579 light units
Luciferase Activity (light units) ([1]; 10 μM ligand): 7,003 light units
level of expression of luciferase above that observed in the absence of chemical ligand ([5]; 10 μM RH5992, GAL4-EcR^330-878 + USP-VP16, maize cells): 36 fold
Luciferase Activity (light units) ([5]; 10 μM ligand, approximately 48 hours, maize cells, 35S/GAL4-EcR^330-878 + 35S/USP-VP16, (GAL4)10-Bz1/Luc): 130,601 light units
Luciferase Activity (light units) [6]: 24,631 light units
Luciferase Activity (light units) ([2]; 10 μM ligand): 860 light units

C[C@H]([C@H](O)CCC(C)(C)O)[C@H]1CC[C@@]2(O)C3=CC(=O)[C@@H]4C[C@@H](O)[C@@H](O)C[C@]4(C)[C@H]3CC[C@]12C [ecdysone]
Luciferase Activity (light units) ([1]; 1 μM ligand): 7,420 light units

GAL4-EcR^330-878 chimeric receptor polypeptide (from UniProt P04386 1-147; P34021 330-878)
Luciferase Activity (light units), (GAL4)10-Bz1/Luc target cassette in maize cells, with 10 uM RH5992 [7]: 131000 light units
Luciferase Activity (light units), (GAL4)10-Bz1/Luc target cassette in maize cells, without RH5992 [7]: 3590 light units
level of expression of the target polypeptide luciferase with RH5992 over that in the absence of chemical ligand [7]: 36 fold
